Here are results for eight compounds from ChEMBL document CHEMBL1201862, “PubChem BioAssay data set” (2004).

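48-hour exposure; five concentrations; linearly interpolated endpoints. GI50 marks 50% less growth.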 The source made the active and inactive calls. No stated cut-off is given here; in the data, active = GI50 up to about 1.1 µM and inactive = higher.

Some test systems named below: KM12; NCI/ADR-RES; SK-OV-3; U-251; NCI-H460; HCT-15; CAKI-1; SN12C; COLO 205; OVCAR-8; MDA-MB-231; Hs-578T; A498; Malme-3M; DU-145; SNB-19; SR; SW-620; NCI-H226; CCRF-CEM.
Assay in all cases: NCI tumour cell line growth inhibition, 48 h

As to `COc1ccc(NCc2c(O)ccc3ccccc23)cc1`, the GI50 was 67.1 µM (inactive) with KM12; 40.5 µM (inactive) in the experiment with NCI/ADR-RES; > 100 µM (inactive) in the experiment with SK-OV-3; 28.3 µM (inactive) with U-251; 49.9 µM (inactive) in the experiment on NCI-H460; 13.7 µM in the experiment on HCT-15. Moreover, the GI50 was 22.3 µM (inactive) in the experiment with CAKI-1; 34.4 µM (inactive) in the experiment with SN12C; 22.8 µM (inactive) in the experiment on COLO 205; 15.8 µM (inactive) in the experiment on OVCAR-8; 30 µM (inactive) in the experiment on MDA-MB-231; 60.5 µM (inactive) in the experiment with Hs-578T. For the same compound, the GI50 in the experiment on A498 was 24.6 µM (inactive); in the experiment on Malme-3M it was 20.7 µM (inactive); in the experiment on DU-145 it was 76 µM (inactive); in the experiment on SNB-19, > 100 µM (inactive); in the experiment on SR it was 17.1 µM (inactive); in the experiment with SW-620, 21.4 µM (inactive).

For the compound `CC(=N/N=C/c1ccccn1)/C(C)=N/N=C(C)/C(C)=N/N=C(C)/C(C)=N/N=C(C)/C(C)=N\N=C\c1ccccn1`, the GI50 in the experiment with KM12 was > 100 µM (inactive); with NCI/ADR-RES, > 100 µM (inactive); in the experiment with SK-OV-3 it was > 100 µM (inactive); with U-251, > 100 µM (inactive); in the experiment on NCI-H460, > 100 µM (inactive); in the experiment with HCT-15 it was greater than 100 µM. Also, the GI50 with CAKI-1, in the experiment on SN12C, with COLO 205, in the experiment with OVCAR-8, with MDA-MB-231 and with Hs-578T was > 100 µM (inactive) each time. Moreover, the GI50 in the experiment with A498, in the experiment with NCI-H226, in the experiment with Malme-3M, in the experiment with DU-145, with SNB-19 and in the experiment with SR was > 100 µM (inactive) throughout. The GI50 in the experiment on SW-620 was > 100 µM (inactive).

As for `C[S+]([O-])c1ncc2c(n1)-c1ccccc1OC2` (stereo unspecified), the GI50 is > 100 µM (inactive) in the experiment on KM12; > 100 µM (inactive) in the experiment with NCI/ADR-RES; > 100 µM (inactive) in the experiment with SK-OV-3; > 100 µM (inactive) with U-251; > 100 µM (inactive) in the experiment with NCI-H460; 88.1 µM in the experiment with HCT-15. Also, the GI50 is 83.8 µM (inactive) with CAKI-1; 47 µM (inactive) in the experiment on SN12C; > 100 µM (inactive) in the experiment on CCRF-CEM; 68.1 µM (inactive) with COLO 205; > 100 µM (inactive) in the experiment on OVCAR-8; > 100 µM (inactive) with MDA-MB-231. Also, the GI50 in the experiment on Hs-578T was 63.4 µM (inactive); in the experiment with NCI-H226 it was > 100 µM (inactive); with Malme-3M it was > 100 µM (inactive); in the experiment with DU-145 it was 38.6 µM (inactive); with SNB-19 it was > 100 µM (inactive); in the experiment with SR, > 100 µM (inactive). Further, the GI50 in the experiment with SW-620 was > 100 µM (inactive).

With `Cc1oc2c(c1C)S(=O)(=O)C(C#N)=C(c1ccccc1)N2`, the GI50 in the experiment with KM12 is > 100 µM (inactive); in the experiment on NCI/ADR-RES it was > 100 µM (inactive); in the experiment on SK-OV-3, > 100 µM (inactive); in the experiment on U-251, > 100 µM (inactive); in the experiment with NCI-H460 it was > 100 µM (inactive); with HCT-15, greater than 100 µM. The GI50 in the experiment on CAKI-1, with SN12C, with COLO 205, with OVCAR-8, with MDA-MB-231 and in the experiment with Hs-578T was > 100 µM (inactive) in each case. For the same compound, the GI50 was > 100 µM (inactive) in the experiment on A498; > 100 µM (inactive) with NCI-H226; 63.5 µM (inactive) in the experiment on Malme-3M; > 100 µM (inactive) with DU-145; > 100 µM (inactive) in the experiment on SNB-19; > 100 µM (inactive) in the experiment on SR. For the same compound, in the experiment on SW-620, the GI50 is > 100 µM (inactive).

Regarding `CN(c1ccc(Cl)cc1)S(=O)(=O)c1cccc([N+](=O)[O-])c1`, the GI50 is 52.6 µM (inactive) in the experiment with KM12; 36.7 µM (inactive) with NCI/ADR-RES; > 100 µM (inactive) in the experiment with SK-OV-3; 64.4 µM (inactive) in the experiment with U-251; 42.3 µM (inactive) in the experiment with NCI-H460; 47.1 µM with HCT-15. The GI50 in the experiment with CAKI-1 is 64.6 µM (inactive); with SN12C it was > 100 µM (inactive); in the experiment with CCRF-CEM, 27.5 µM (inactive); in the experiment with COLO 205, 65 µM (inactive); in the experiment with OVCAR-8 it was > 100 µM (inactive); in the experiment on MDA-MB-231, 44 µM (inactive). The GI50 was > 100 µM (inactive) with Hs-578T; 53.8 µM (inactive) in the experiment on NCI-H226; 69.2 µM (inactive) in the experiment on Malme-3M; > 100 µM (inactive) with DU-145; > 100 µM (inactive) with SNB-19; 52.6 µM (inactive) with SR. For the same compound, in the experiment with SW-620, the GI50 is 70.5 µM (inactive).

With `C#CCSc1cnc2ccccc2c1Sc1c[nH]c2ccccc2c1=O`, the GI50 is 21.1 µM (inactive) in the experiment with KM12; 33 µM (inactive) in the experiment on NCI/ADR-RES; 30.3 µM (inactive) in the experiment on SK-OV-3; 15 µM (inactive) in the experiment on U-251; 11.7 µM (inactive) in the experiment with NCI-H460; 16.1 µM in the experiment on HCT-15. Further, the GI50 in the experiment on CAKI-1 was 23.7 µM (inactive); in the experiment with SN12C it was 12.8 µM (inactive); in the experiment on CCRF-CEM it was > 100 µM (inactive); in the experiment with COLO 205, 24 µM (inactive); with OVCAR-8, 24.7 µM (inactive); with MDA-MB-231, 31.9 µM (inactive). The GI50 in the experiment with Hs-578T is 48.2 µM (inactive); with NCI-H226, 21 µM (inactive); in the experiment with Malme-3M, 19.4 µM (inactive); in the experiment with DU-145 it was 51.3 µM (inactive); in the experiment with SNB-19 it was 16.1 µM (inactive); in the experiment with SR it was 3.86 µM (inactive). Besides, in the experiment with SW-620, the GI50 is 24.8 µM (inactive).

As for `COc1cccc(-c2cc(=O)c3ccccc3o2)c1N`, the GI50 is > 100 µM (inactive) in the experiment with KM12; 33 µM (inactive) with NCI/ADR-RES; 15 µM (inactive) in the experiment with SK-OV-3; > 100 µM (inactive) in the experiment on U-251; > 59 µM (inactive) in the experiment with NCI-H460; greater than 100 µM in the experiment on HCT-15. Besides, the GI50 in the experiment on CAKI-1 is > 100 µM (inactive); in the experiment with SN12C, > 100 µM (inactive); in the experiment on CCRF-CEM it was > 100 µM (inactive); in the experiment on COLO 205, 9.93 µM (inactive); with OVCAR-8 it was 53 µM (inactive); with MDA-MB-231, 26.9 µM (inactive). Moreover, the GI50 is 71.9 µM (inactive) with Hs-578T; 63 µM (inactive) with NCI-H226; 3.62 µM (inactive) in the experiment on Malme-3M; > 100 µM (inactive) in the experiment on DU-145; 51.9 µM (inactive) in the experiment with SNB-19; > 100 µM (inactive) in the experiment on SR. In the experiment with SW-620, the GI50 was 15.5 µM (inactive).

Take `CC(C)CCC(=O)c1ccoc1` [PERILLAKETONE]: the GI50 in the experiment with KM12 is > 100 µM (inactive); in the experiment with NCI/ADR-RES, > 100 µM (inactive); in the experiment with SK-OV-3, > 100 µM (inactive); in the experiment on U-251, > 100 µM (inactive); with NCI-H460 it was > 100 µM (inactive); in the experiment with HCT-15, greater than 100 µM. The GI50 in the experiment on CAKI-1, in the experiment with SN12C, in the experiment with CCRF-CEM, in the experiment on COLO 205, with OVCAR-8 and in the experiment on MDA-MB-231 was > 100 µM (inactive) each time. Further, the GI50 with Hs-578T, in the experiment with NCI-H226, with Malme-3M, in the experiment on DU-145, in the experiment on SNB-19 and in the experiment on SR was > 100 µM (inactive) throughout. Also, the GI50 with SW-620 was > 100 µM (inactive).
